Experimental data as given in patent publication US8183215B2, “Method of administering oral flora-improving agent, antibacterial agent and growth promoter” (Megmilk Snow Brand Co., Ltd., priority 2004, dated 2012).
Bridge positions count the residues as written; N and C are the ends. Square brackets hold non-standard residues; d marks the D form. Peptide text beside a SMILES is read from it. * marks the point of attachment. Ileψ(thiazoline)Cys = CC[C@H](C)[C@H](N)C1=N[C@H](C(=O)*)CS1; dOrn = NCCC[C@@H](N)C(=O)O

Experiments:
Assay in all cases: Radial Diffusion Assay, antibacterial / growth promoting activity
Assay type in all cases: cell-based
[1] = tested on: Actinomyces naeslundii JCM8349 strain; conditions: for antibacterial activity / growth promoting activity: Actinomyces naeslundii JCM8349, 5 μl sample in hole, zone measured after 18 hours at 37° C.; for antibacterial and growth promoting activity, result in words: Actinomyces naeslundii JCM8349 strain
Experimental: (§1) The influences of gangliosides on oral bacteria were examined by Radial Diffusion Assay. That is, 3 mg of Tryptic Soy medium (Difco), 20 μl of Tween 20, and 100 mg of agarose were dissolved in 10 ml of ultrapure water and sterilized. 100 μl of solution of bacteria having an OD620 of 0.2 (5×10^7 cfu/ml) was added to the sterilized medium, and then the resultant mixture was dispensed in Petri dishes and allowed to solidify at room temperature. Each solidified medium was provided with a hole of about 2.5 mm in diameter and 5 μl of each solution of ganglioside GM3 or ganglioside GD3 derived from milk for the evaluation of the antibacterial effect was added to the hole and incubated at 37° C. for 1 hour. Further, a sterilized medium obtained by dissolving 0.6 g of Tryptic Soy medium and 100 mg of agarose in 10 ml of ultrapure water was superposed on the solidified medium and left to solidify at room temperature, and then stationary cultured in an incubator at 37° C. After 18 hours, the diameter of a clear zone formed around the hole formed in the medium was measured. A length obtained by subtracting the diameter (mm) of the hole formed in the medium from the diameter (mm) of a clear zone formed by inhibition of the growth of the bacterium was defined as antibacterial activity. On the other hand, when colonies of the bacterium were formed around the hole in the medium and an opaque zone was observed, it was assumed that growth promotion took place, and a length obtained by subtracting the diameter (mm) of the hole formed in the medium from the diameter (mm) of an opaque zone was defined as growth promotion activity. The bacterial strains subjected to the test include Streptococcus sobrinus 6715 strain, Streptococcus anginosus ATCC33397 strain, and Staphylococcus aureus Cowan I strain as harmful oral bacteria; Streptococcus agalactiae ATCC46448 strain and Actinomyces naeslundii JCM8349 strain as habitant oral bacteria; and Streptococcus mitis GTC495 strain, Streptococcus mitis ATCC6249 strain, and Streptococcus mitis ATCC903 strain as useful oral bacteria.
(§2) Bacitracin, which is an antibacterial component separated from Bacillus subtilis, was used as a positive control and a sample showing an antibacterial activity of 2.0 mm or more was judged to be positive (having an antibacterial activity). As for the growth promoting effect, a sample having a growth promoting activity of 1.0 mm or more was judged to be positive (having a growth promoting activity).

[2] = tested on: Staphylococcus aureus Cowan I strain; conditions: 5 μl sample in hole, zone measured after 18 hours at 37° C.
Experimental: as §1, §2

[3] = tested on: Streptococcus agalactiae ATCC46448 strain; conditions: for antibacterial activity / growth promoting activity: Streptococcus agalactiae ATCC46448, 5 μl sample in hole, zone measured after 18 hours at 37° C.; for antibacterial and growth promoting activity, result in words: Streptococcus agalactiae ATCC46448 strain
Experimental: as §1, §2

[4] = tested on: Streptococcus anginosus ATCC33397 strain; conditions: 5 μl sample in hole, zone measured after 18 hours at 37° C.
Experimental: as §1, §2

[5] = tested on: Streptococcus mitis ATCC6249 strain; conditions: 5 μl sample in hole, zone measured after 18 hours at 37° C.
Experimental: as §1, §2

[6] = tested on: Streptococcus mitis ATCC903 strain; conditions: 5 μl sample in hole, zone measured after 18 hours at 37° C.
Experimental: as §1, §2

[7] = tested on: Streptococcus mitis GTC945; conditions: 5 μl sample in hole, zone measured after 18 hours at 37° C.
Experimental: as §1, §2

[8] = tested on: Streptococcus sobrinus 6715 strain; conditions: 5 μl sample in hole, zone measured after 18 hours at 37° C.
Experimental: as §1, §2

Compound	antibacterial activity / growth promoting activity [1]	antibacterial activity / growth promoting activity [2]	antibacterial activity / growth promoting activity [3]	antibacterial activity / growth promoting activity [4]	antibacterial activity / growth promoting activity [5]	antibacterial activity / growth promoting activity [6]	antibacterial activity / growth promoting activity [7]	antibacterial activity / growth promoting activity [8]	antibacterial and growth promoting activity, result in words [1]	antibacterial and growth promoting activity, result in words [3]
CC[C@H](C)[C@H](N)C1=N[C@H](C(=O)N[C@@H](CC(C)C)C(=O)N[C@H](CCC(=O)O)C(=O)N[C@H](C(=O)N[C@H]2CCCCNC(=O)[C@H](CC(N)=O)NC(=O)[C@@H](CC(=O)O)NC(=O)[C@H](Cc3cnc[nH]3)NC(=O)[C@@H](Cc3ccccc3)NC(=O)[C@H]([C@@H](C)CC)NC(=O)[C@@H](CCCN)NC2=O)[C@@H](C)CC)CS1 [Bacitracin, reference compound] ({Ileψ(thiazoline)Cys}-L[dE]IK[dOrn]I[dF]H[dD]N; lactam 4-C)	+ (Having an antibacterial activity)	+ (Having an antibacterial activity)	+ (Having an antibacterial activity)	+ (Having an antibacterial activity)	+ (Having an antibacterial activity)	+ (Having an antibacterial activity)	+ (Having an antibacterial activity)	+ (Having an antibacterial activity)	–	–
ganglioside GD3	− (Having no antibacterial activity)	+ (Having an antibacterial activity)	− (Having no antibacterial activity)	+ (Having an antibacterial activity)	* (Having a growth promoting activity)	* (Having a growth promoting activity)	* (Having a growth promoting activity)	+ (Having an antibacterial activity)	neither an antibacterial activity nor a growth promoting activity	neither an antibacterial activity nor a growth promoting activity
ganglioside GM3	− (Having no antibacterial activity)	+ (Having an antibacterial activity)	− (Having no antibacterial activity)	+ (Having an antibacterial activity)	* (Having a growth promoting activity)	* (Having a growth promoting activity)	* (Having a growth promoting activity)	+ (Having an antibacterial activity)	neither an antibacterial activity nor a growth promoting activity	neither an antibacterial activity nor a growth promoting activity
